Assay results from PubChem BioAssay (NCI).
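Test compounds were applied to cells in 96-well plates for 48 hours at 5 doses. TGI marks complete inhibition of growth.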 Where a SMILES comes first, the peptide text is derived from it. [ ]: non-standard residue; d: D form. The star is where a group is joined. AllylGly = C=CC[CH](N)C(=O)O; Boc = CC(C)(C)OC(=O)*; OtBu = CC(C)(C)O*

Tests used:
Assay in all cases: NCI anticancer screen, dose series, 48 h
CAKI-1 renal = test system: CAKI-1 renal
CCRF-CEM leukemia = test system: CCRF-CEM leukemia
EKVX NSCLC = test system: EKVX NSCLC
HCT-116 colon = test system: HCT-116 colon
K-562 leukemia = test system: K-562 leukemia
M14 melanoma = test system: M14 melanoma
MCF7 breast = test system: MCF7 breast
MDA-MB-231 breast = test system: MDA-MB-231 breast
MOLT-4 leukemia = test system: MOLT-4 leukemia
NCI-H23 lung = test system: NCI-H23 lung
NCI-H522 lung = test system: NCI-H522 lung
PC-3 prostate = test system: PC-3 prostate
RPMI-8226 leukemia = test system: RPMI-8226 leukemia
SF-268 CNS = test system: SF-268 CNS
SF-539 CNS = test system: SF-539 CNS
SK-MEL-28 melanoma = test system: SK-MEL-28 melanoma
SNB-19 CNS = test system: SNB-19 CNS
SR leukemia = test system: SR leukemia
HL-60(TB) leukemia = test system: HL-60(TB) leukemia
UACC-62 melanoma = test system: UACC-62 melanoma

SMILES	TGI (CAKI-1 renal)	TGI (CCRF-CEM leukemia)	TGI (EKVX NSCLC)	TGI (HCT-116 colon)	TGI (K-562 leukemia)	TGI (M14 melanoma)	TGI (MCF7 breast)	TGI (MDA-MB-231 breast)	TGI (MOLT-4 leukemia)	TGI (NCI-H23 lung)	TGI (NCI-H522 lung)	TGI (PC-3 prostate)	TGI (RPMI-8226 leukemia)	TGI (SF-268 CNS)	TGI (SF-539 CNS)	TGI (SK-MEL-28 melanoma)	TGI (SNB-19 CNS)	TGI (SR leukemia)	TGI (HL-60(TB) leukemia)	TGI (UACC-62 melanoma)
CCCCC(=O)Nc1ccc2cc(C(=O)OC)c(ON3C(=O)c4ccccc4C3=O)nc2n1	52.4 µM	> 100 µM	> 100 µM	45.9 µM	> 100 µM	43.3 µM	> 100 µM	> 100 µM	> 100 µM	> 100 µM	58.5 µM	> 100 µM	> 100 µM	81.2 µM	43.5 µM	53.5 µM	> 100 µM	> 100 µM	–	–
CC1(C)CC(=O)C2=C(C1)c1c(ccc3ccccc13)NC2c1cn(Cc2ccc(Cl)cc2)c2ccccc12 (stereo not drawn)	> 100 µM	> 100 µM	> 100 µM	> 100 µM	> 100 µM	> 100 µM	> 100 µM	> 100 µM	> 100 µM	> 100 µM	> 100 µM	> 100 µM	> 100 µM	> 100 µM	> 100 µM	–	> 100 µM	> 100 µM	> 100 µM	> 100 µM
C[C@]12CC[C@@H]3c4cc(OCC(F)(F)F)c(O)cc4C(=O)C[C@H]3[C@@H]1CC[C@@H]2O	> 100 µM	> 66.3 µM	> 100 µM	> 100 µM	> 100 µM	> 41.7 µM	> 100 µM	> 66.4 µM	> 100 µM	> 100 µM	> 100 µM	> 67.7 µM	> 100 µM	> 100 µM	22.6 µM	> 52.3 µM	> 79.5 µM	> 100 µM	4.68 µM	> 100 µM
S=C(N/N=C(/c1ccccc1)c1ccccn1)Nc1ccccc1Cl	11.5 µM	> 38.1 µM	9.92 µM	3.44 µM	> 5.82 µM	2.89 µM	6.89 µM	2.19 µM	1.02 µM	16.7 µM	1.89 µM	13.3 µM	> 7.31 µM	13.3 µM	6.59 µM	19.1 µM	15.8 µM	3.04 µM	0.228 µM	14.6 µM
CC(OC(=O)NCn1cc(-c2ccccc2)nn1)c1ccccc1 (stereo not drawn)	> 100 µM	> 100 µM	> 100 µM	> 100 µM	75.5 µM	34.9 µM	> 100 µM	> 100 µM	47.4 µM	76.8 µM	> 100 µM	5.23 µM	> 100 µM	–	> 100 µM	> 100 µM	> 100 µM	> 100 µM	75 µM	–
Cc1c(CCOC=O)c(=O)[nH]c2nncn12	–	> 100 µM	> 100 µM	> 100 µM	> 100 µM	> 100 µM	> 100 µM	> 100 µM	> 100 µM	> 100 µM	> 100 µM	> 100 µM	> 100 µM	> 100 µM	> 100 µM	> 100 µM	> 100 µM	> 100 µM	> 100 µM	> 100 µM
CN(C)CCNc1ccc2c(=O)n(CCN(C)C)c(=O)n3c4ccc([N+](=O)[O-])cc4c(=O)c1c23	10.2 µM	0.381 µM	2.83 µM	1.24 µM	1.94 µM	2.38 µM	1.04 µM	2.21 µM	0.0685 µM	0.777 µM	0.263 µM	2.43 µM	0.605 µM	3.33 µM	1.68 µM	2.66 µM	4.51 µM	0.581 µM	0.417 µM	3.17 µM
CCCCn1c(C)c(C(=O)OCC)s/c1=N/Nc1nc2ccccc2nc1-c1ccccc1	> 100 µM	> 100 µM	> 100 µM	> 100 µM	> 100 µM	> 100 µM	> 100 µM	> 100 µM	> 100 µM	> 100 µM	> 100 µM	> 100 µM	> 100 µM	–	> 100 µM	> 100 µM	> 100 µM	> 100 µM	> 100 µM	> 100 µM
CC1(c2nc3cc(Cl)c(Cl)cc3[nH]2)CCC(CO)C(C)(C)O1 (stereo not drawn)	> 100 µM	> 100 µM	87 µM	> 100 µM	> 100 µM	92.5 µM	> 100 µM	77.6 µM	> 100 µM	76.4 µM	30.3 µM	97.3 µM	> 100 µM	> 100 µM	70.5 µM	92 µM	> 100 µM	> 100 µM	36.7 µM	39.2 µM
CC(C)(C)c1nc2c(o1)C(=O)c1ccccc1C2=O	6.77 µM	> 29.5 µM	6.51 µM	2.87 µM	13.8 µM	1.97 µM	1.35 µM	1.97 µM	16.9 µM	1.78 µM	3.85 µM	2.22 µM	16.8 µM	10.5 µM	3.4 µM	4.35 µM	9.81 µM	45 µM	1.78 µM	1.58 µM
O=P(Oc1ccccc1)(Oc1ccccc1)Oc1c[nH]c2ccccc12	23.4 µM	1.5 µM	0.907 µM	38.8 µM	36.5 µM	26.8 µM	25.3 µM	31.3 µM	46.6 µM	25.8 µM	–	8.26 µM	1.54 µM	24.3 µM	24 µM	26.6 µM	27.7 µM	> 100 µM	44.1 µM	22 µM
O=C(NNC(=S)Nc1ccccc1)c1ccccc1Nc1ccccc1C(=O)NNC(=S)Nc1ccccc1	> 100 µM	> 100 µM	85.3 µM	35.5 µM	> 100 µM	41.5 µM	83.8 µM	61.3 µM	> 100 µM	41.5 µM	46 µM	64.8 µM	> 100 µM	60.6 µM	59.8 µM	> 100 µM	72.4 µM	> 100 µM	> 100 µM	26.9 µM
CCCCCNc1nonc1N	> 100 µM	> 31.6 µM	> 100 µM	> 100 µM	> 100 µM	> 100 µM	> 100 µM	> 100 µM	> 100 µM	> 100 µM	> 100 µM	> 100 µM	> 100 µM	> 100 µM	> 100 µM	> 100 µM	> 100 µM	> 100 µM	–	> 100 µM
COc1cc(CCCOC(=O)/C=C/c2ccc(O)c(O)c2)cc(O)c1O	> 100 µM	> 100 µM	> 100 µM	34.9 µM	> 100 µM	> 100 µM	69.4 µM	91.7 µM	> 100 µM	> 100 µM	29.2 µM	> 100 µM	> 100 µM	84.5 µM	90.2 µM	> 100 µM	> 100 µM	> 100 µM	84.1 µM	85.1 µM
CC1(C)N=C(C(N)=O)c2ncn(-c3ccccc3)c2N1	> 100 µM	> 100 µM	> 100 µM	> 100 µM	> 100 µM	> 100 µM	> 100 µM	> 100 µM	–	> 100 µM	> 100 µM	> 100 µM	> 100 µM	> 100 µM	> 100 µM	> 100 µM	> 100 µM	> 100 µM	> 100 µM	> 100 µM
COC(=O)C1(Cc2ccc3c(c2)CCC3)Cc2ccc3c(c2C1O)CCC3 (stereo not drawn)	29.4 µM	> 100 µM	32 µM	28.1 µM	> 100 µM	–	26.9 µM	29.4 µM	> 100 µM	–	25.6 µM	32.3 µM	59.4 µM	69.8 µM	47.4 µM	32.6 µM	–	> 100 µM	> 100 µM	32.9 µM
C=CCC(NC(=O)C(CC(=O)OC(C)(C)C)NC(=O)OC(C)(C)C)C(=O)OC (stereo not drawn) (Boc-Asp(OtBu)-[AllylGly]-OMe; configuration not given here)	> 100 µM	> 100 µM	> 100 µM	> 100 µM	> 100 µM	43 µM	> 100 µM	> 100 µM	> 91.6 µM	> 100 µM	> 100 µM	> 100 µM	> 84.6 µM	> 100 µM	> 100 µM	> 100 µM	> 100 µM	> 100 µM	85.5 µM	> 100 µM
CCOC(=O)CCC(NC(=O)c1ccc(Oc2nc3ccc(C(F)(F)F)cc3nc2-c2ccccc2)cc1)C(=O)OCC (stereo not drawn)	26.9 µM	> 100 µM	64 µM	> 100 µM	> 100 µM	> 100 µM	> 100 µM	> 61.1 µM	> 100 µM	> 79.2 µM	> 100 µM	> 100 µM	> 100 µM	42.1 µM	> 34.3 µM	> 100 µM	> 100 µM	> 100 µM	> 100 µM	> 100 µM
O=C1/C(=C\c2cccc(Oc3ccccc3)c2)S(=O)(=O)C(c2ccccc2)N1c1ccc(Cl)cc1 (stereo not drawn)	84.2 µM	79.1 µM	84.5 µM	26.8 µM	56.9 µM	26.9 µM	62.9 µM	34.7 µM	33.1 µM	> 100 µM	29.5 µM	> 100 µM	> 100 µM	–	41.7 µM	34 µM	55.9 µM	40 µM	32.7 µM	57 µM
Cc1cn(C2CCC(/C=N\O)O2)c(=O)[nH]c1=O (stereo not drawn)	> 100 µM	> 100 µM	> 100 µM	> 100 µM	> 100 µM	> 100 µM	> 100 µM	> 100 µM	> 100 µM	> 100 µM	–	> 100 µM	> 100 µM	–	> 100 µM	> 100 µM	> 100 µM	> 100 µM	–	> 100 µM
CN(NC(=O)CCCl)C1=NCCN1	–	> 100 µM	> 100 µM	> 100 µM	> 100 µM	> 100 µM	> 100 µM	> 100 µM	> 100 µM	> 100 µM	> 100 µM	> 100 µM	> 100 µM	> 100 µM	> 100 µM	> 100 µM	> 100 µM	> 100 µM	> 100 µM	> 100 µM
C[C@H](Nc1c(O)c2c(c(O)c1Cl)C(=O)C=CC2=O)C(=O)Nc1ccc([N+](=O)[O-])cc1	> 10 µM	> 10 µM	> 10 µM	2.7 µM	> 10 µM	2.53 µM	3.42 µM	4.22 µM	> 10 µM	4.45 µM	6.65 µM	8.89 µM	> 10 µM	5.79 µM	4.2 µM	4.02 µM	9.59 µM	> 10 µM	–	6.16 µM
O=[N+]([O-])c1ccc(C2=NOC(c3ccccc3F)N2C23CC4CC(CC(C4)C2)C3)cc1 (stereo not drawn)	> 100 µM	> 100 µM	> 100 µM	> 100 µM	> 100 µM	> 100 µM	> 100 µM	> 100 µM	> 100 µM	> 100 µM	> 100 µM	> 100 µM	> 100 µM	> 100 µM	> 100 µM	> 100 µM	–	> 100 µM	> 100 µM	> 100 µM
O=c1[nH]c(Nc2cccc(C(F)(F)F)c2)nc2nc[nH]c12	> 100 µM	> 100 µM	> 100 µM	> 100 µM	> 100 µM	> 100 µM	> 100 µM	> 100 µM	> 100 µM	–	> 100 µM	> 100 µM	> 100 µM	> 100 µM	> 100 µM	> 100 µM	> 100 µM	> 100 µM	> 100 µM	–
